The supplement of paper PMC10307832

Columns and labels:
Assay in all cases: relative viability (nuclei count vs DMSO), 5 days (fraction); higher = more cells survive
[1] = compound: CCN1C(=O)C2=CC(=C(N=C2N(C1=O)C3CC3)N)C(=O)N + CS(=O)(=O)N1CCN(Cc2cc3nc(-c4cccc5[nH]ncc45)nc(N4CCOCC4)c3s2)CC1 [Pictilisib] (partner 1 µM)
Procedure, shortened: (§1)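 Dosing by pin tool came one day after lung cancer cell lines were seeded in 1536-well plates, using either one drug or a fixed anchor-drug dose plus five library-drug doses (not always all listed) in √10 steps. After 5 days, nuclei were counted on 4× images. Relative viability is treated-well nuclei count divided by vehicle-well nuclei count, and values are medians of duplicate plates.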

[2] = compound: CCN1C(=O)C2=CC(=C(N=C2N(C1=O)C3CC3)N)C(=O)N + N=C(N)NC(=N)NCCc1ccccc1 [Phenformin] (partner 250 µM)
Procedure, shortened: as §1

[3] = compound: CCN1C(=O)C2=CC(=C(N=C2N(C1=O)C3CC3)N)C(=O)N + Cc1nc(NC(=O)N2CCC[C@H]2C(N)=O)sc1-c1ccnc(C(C)(C)C(F)(F)F)c1 [Alpelisib] (partner 2 µM)
Procedure, shortened: as §1

[4] = compound: CCN1C(=O)C2=CC(=C(N=C2N(C1=O)C3CC3)N)C(=O)N + O=C(CCCCCCC(=O)Nc1ccccc1)NO [Vorinostat] (partner 1 µM)
Procedure, shortened: as §1

[5] = compound: CCN1C(=O)C2=CC(=C(N=C2N(C1=O)C3CC3)N)C(=O)N + Cc1cc(Nc2cc(N3CCN(C)CC3)nc(Sc3ccc(NC(=O)C4CC4)cc3)n2)n[nH]1 [Tozasertib] (partner 0.1 µM)
Procedure, shortened: as §1

With NCI-H727 the relative viability ([1]; first compound 0.253 µM) was 0.441, the relative viability ([1]; first compound 0.8 µM) was 0.375 and the relative viability ([1]; first compound 2.53 µM) was 0.428. For the same cell line, the relative viability ([1]; first compound 8 µM) was 0.508, the relative viability ([2]; first compound 0.253 µM) was 0.625 and the relative viability ([2]; first compound 0.8 µM) was 0.455. The relative viability ([2]; first compound 2.53 µM) was 0.459, the relative viability ([2]; first compound 8 µM) was 0.666 and the relative viability ([3]; first compound 0.253 µM) was 0.568. The relative viability ([3]; first compound 0.8 µM) was 0.572, the relative viability ([3]; first compound 2.53 µM) was 0.598 and the relative viability ([3]; first compound 8 µM) was 0.658. For the same cell line, the relative viability ([4]; first compound 0.253 µM) was 1.27, the relative viability ([4]; first compound 0.8 µM) was 1.11 and the relative viability ([4]; first compound 2.53 µM) was 1.26. It also gave a relative viability ([4]; first compound 8 µM) of 1.07, a relative viability ([5]; first compound 0.253 µM) of 0.534 and a relative viability ([5]; first compound 0.8 µM) of 0.71. For the same cell line, the relative viability ([5]; first compound 2.53 µM) was 0.608 and the relative viability ([5]; first compound 8 µM) was 0.603.

In the case of NCI-H838, the relative viability ([1]; first compound 0.253 µM) is reported as 0.468, the relative viability ([1]; first compound 0.8 µM) is reported as 0.41 and the relative viability ([1]; first compound 2.53 µM) is reported as 0.437. It also gave a relative viability ([1]; first compound 8 µM) of 0.503, a relative viability ([2]; first compound 0.253 µM) of 0.607 and a relative viability ([2]; first compound 0.8 µM) of 0.589. It also gave a relative viability ([2]; first compound 2.53 µM) of 0.551, a relative viability ([2]; first compound 8 µM) of 0.545 and a relative viability ([3]; first compound 0.253 µM) of 1.02. It also gave a relative viability ([3]; first compound 0.8 µM) of 0.985, a relative viability ([3]; first compound 2.53 µM) of 0.934 and a relative viability ([3]; first compound 8 µM) of 0.906. For the same cell line, the relative viability ([4]; first compound 0.253 µM) was 0.756, the relative viability ([4]; first compound 0.8 µM) was 0.694 and the relative viability ([4]; first compound 2.53 µM) was 0.692. The relative viability ([4]; first compound 8 µM) was 0.752, the relative viability ([5]; first compound 0.253 µM) was 0.258 and the relative viability ([5]; first compound 0.8 µM) was 0.203. The relative viability ([5]; first compound 2.53 µM) was 0.28 and the relative viability ([5]; first compound 8 µM) was 0.234.

NCI-H1355 gave a relative viability ([1]; first compound 0.253 µM) of 0.324, a relative viability ([1]; first compound 0.8 µM) of 0.513 and a relative viability ([1]; first compound 2.53 µM) of 0.419. The relative viability ([1]; first compound 8 µM) was 0.505, the relative viability ([2]; first compound 0.253 µM) was 0.463 and the relative viability ([2]; first compound 0.8 µM) was 0.473. The relative viability ([2]; first compound 2.53 µM) was 0.451, the relative viability ([2]; first compound 8 µM) was 0.436 and the relative viability ([3]; first compound 0.253 µM) was 0.829. The relative viability ([3]; first compound 0.8 µM) was 0.949, the relative viability ([3]; first compound 2.53 µM) was 0.787 and the relative viability ([3]; first compound 8 µM) was 0.853. For the same cell line, the relative viability ([4]; first compound 0.253 µM) was 0.626, the relative viability ([4]; first compound 0.8 µM) was 0.662 and the relative viability ([4]; first compound 2.53 µM) was 0.636. It also gave a relative viability ([4]; first compound 8 µM) of 0.674, a relative viability ([5]; first compound 0.253 µM) of 0.587 and a relative viability ([5]; first compound 0.8 µM) of 0.616. It also gave a relative viability ([5]; first compound 2.53 µM) of 0.509 and a relative viability ([5]; first compound 8 µM) of 0.515.

NCI-H1395 gave a relative viability ([1]; first compound 0.253 µM) of 0.611, a relative viability ([1]; first compound 0.8 µM) of 0.583 and a relative viability ([1]; first compound 2.53 µM) of 0.636. It also gave a relative viability ([1]; first compound 8 µM) of 0.63, a relative viability ([2]; first compound 0.253 µM) of 0.451 and a relative viability ([2]; first compound 0.8 µM) of 0.428. It also gave a relative viability ([2]; first compound 2.53 µM) of 0.464, a relative viability ([2]; first compound 8 µM) of 0.439 and a relative viability ([3]; first compound 0.253 µM) of 0.958. The relative viability ([3]; first compound 0.8 µM) was 1.04, the relative viability ([3]; first compound 2.53 µM) was 1.01 and the relative viability ([3]; first compound 8 µM) was 0.976. It also gave a relative viability ([4]; first compound 0.253 µM) of 0.716, a relative viability ([4]; first compound 0.8 µM) of 0.549 and a relative viability ([4]; first compound 2.53 µM) of 0.912. The relative viability ([4]; first compound 8 µM) was 0.674, the relative viability ([5]; first compound 0.253 µM) was 0.697 and the relative viability ([5]; first compound 0.8 µM) was 0.693. It also gave a relative viability ([5]; first compound 2.53 µM) of 0.722 and a relative viability ([5]; first compound 8 µM) of 0.65.

NCI-H1437 showed a relative viability ([1]; first compound 0.253 µM) of 0.433, a relative viability ([1]; first compound 0.8 µM) of 0.416 and a relative viability ([1]; first compound 2.53 µM) of 0.445. It also gave a relative viability ([1]; first compound 8 µM) of 0.465, a relative viability ([2]; first compound 0.253 µM) of 0.269 and a relative viability ([2]; first compound 0.8 µM) of 0.363. The relative viability ([2]; first compound 2.53 µM) was 0.334, the relative viability ([2]; first compound 8 µM) was 0.276 and the relative viability ([3]; first compound 0.253 µM) was 0.956. It also gave a relative viability ([3]; first compound 0.8 µM) of 1.12, a relative viability ([3]; first compound 2.53 µM) of 0.973 and a relative viability ([3]; first compound 8 µM) of 1.04. The relative viability ([4]; first compound 0.253 µM) was 0.845, the relative viability ([4]; first compound 0.8 µM) was 0.804 and the relative viability ([4]; first compound 2.53 µM) was 0.756. For the same cell line, the relative viability ([4]; first compound 8 µM) was 0.808, the relative viability ([5]; first compound 0.253 µM) was 0.378 and the relative viability ([5]; first compound 0.8 µM) was 0.42. It also gave a relative viability ([5]; first compound 2.53 µM) of 0.374 and a relative viability ([5]; first compound 8 µM) of 0.411.

In the case of NCI-H1651, the relative viability ([1]; first compound 0.253 µM) is reported as 0.552, the relative viability ([1]; first compound 0.8 µM) is reported as 0.581 and the relative viability ([1]; first compound 2.53 µM) is reported as 0.461. It also gave a relative viability ([1]; first compound 8 µM) of 0.595, a relative viability ([2]; first compound 0.253 µM) of 0.297 and a relative viability ([2]; first compound 0.8 µM) of 0.326. The relative viability ([2]; first compound 2.53 µM) was 0.328, the relative viability ([2]; first compound 8 µM) was 0.313 and the relative viability ([3]; first compound 0.253 µM) was 0.86. The relative viability ([3]; first compound 0.8 µM) was 0.948, the relative viability ([3]; first compound 2.53 µM) was 0.875 and the relative viability ([3]; first compound 8 µM) was 0.957. The relative viability ([4]; first compound 0.253 µM) was 0.571, the relative viability ([4]; first compound 0.8 µM) was 0.493 and the relative viability ([4]; first compound 2.53 µM) was 0.55. For the same cell line, the relative viability ([4]; first compound 8 µM) was 0.462, the relative viability ([5]; first compound 0.253 µM) was 0.622 and the relative viability ([5]; first compound 0.8 µM) was 0.586. For the same cell line, the relative viability ([5]; first compound 2.53 µM) was 0.631 and the relative viability ([5]; first compound 8 µM) was 0.508.

NCI-H1666 gave a relative viability ([1]; first compound 0.253 µM) of 0.42, a relative viability ([1]; first compound 0.8 µM) of 0.377 and a relative viability ([1]; first compound 2.53 µM) of 0.391. It also gave a relative viability ([1]; first compound 8 µM) of 0.359, a relative viability ([2]; first compound 0.8 µM) of 0.562 and a relative viability ([2]; first compound 2.53 µM) of 0.58. For the same cell line, the relative viability ([2]; first compound 8 µM) was 0.558, the relative viability ([3]; first compound 0.253 µM) was 0.985 and the relative viability ([3]; first compound 0.8 µM) was 0.77. It also gave a relative viability ([3]; first compound 2.53 µM) of 0.969, a relative viability ([3]; first compound 8 µM) of 1.09 and a relative viability ([4]; first compound 0.253 µM) of 1.05. The relative viability ([4]; first compound 0.8 µM) was 0.99, the relative viability ([4]; first compound 2.53 µM) was 1 and the relative viability ([4]; first compound 8 µM) was 1.09. It also gave a relative viability ([5]; first compound 0.8 µM) of 0.608, a relative viability ([5]; first compound 2.53 µM) of 0.584 and a relative viability ([5]; first compound 8 µM) of 0.618.

For NCI-H1734, the relative viability ([1]; first compound 0.253 µM) was 0.456, the relative viability ([1]; first compound 0.8 µM) was 0.495 and the relative viability ([1]; first compound 2.53 µM) was 0.44. The relative viability ([1]; first compound 8 µM) was 0.473, the relative viability ([2]; first compound 0.253 µM) was 0.381 and the relative viability ([2]; first compound 0.8 µM) was 0.365. The relative viability ([2]; first compound 2.53 µM) was 0.384, the relative viability ([2]; first compound 8 µM) was 0.361 and the relative viability ([3]; first compound 0.253 µM) was 0.658. The relative viability ([3]; first compound 0.8 µM) was 0.669, the relative viability ([3]; first compound 2.53 µM) was 0.688 and the relative viability ([3]; first compound 8 µM) was 0.738. For the same cell line, the relative viability ([4]; first compound 0.253 µM) was 0.744, the relative viability ([4]; first compound 0.8 µM) was 0.762 and the relative viability ([4]; first compound 2.53 µM) was 0.811. For the same cell line, the relative viability ([4]; first compound 8 µM) was 0.784, the relative viability ([5]; first compound 0.253 µM) was 0.373 and the relative viability ([5]; first compound 0.8 µM) was 0.278. For the same cell line, the relative viability ([5]; first compound 2.53 µM) was 0.233 and the relative viability ([5]; first compound 8 µM) was 0.25.
